{
  "source": "patent US7385027B2",
  "about": "“Membrane-permeable peptide capable of calpain inhibition” (University of Kentucky Research Foundation, priority 2003, dated 2008)",
  "key": {"[1]": {"test_system": "cultured cortical neurons from rat brains", "assay": "Ionomycin-induced cell death of cultured cortical neurons (calcein AM / propidium iodide)", "format": "cell-based", "description": "(§1) In the first experiment, cell death of the neurons was induced by exposing the culture to ionomycin. In the second experiment, cell death was induced by exposing the neurons to 30 and 60 mJ/cm^2 of UV light. The exposure to either ionomycin or UV light caused calpain I to be activated because of ionomycin-mediated calcium flux or through UV-induced receptors, channels or pore-like structures. Calcein acetoxymethyl ester was used as indicator of live neuron cells while propidium iodide was used an indicator of dead neuron cells.\nIn the first experiment, ten Samples were prepared. Sample 1 was a control Sample and included the cultured cortical neurons only. A baseline for the average percentage of cell death was determined to be 19%. In Sample 2, 0.4 μM ionomycin was added to the cultured neuron cells to activate calpain I. No LSEAL was added to these Samples. The addition of ionomycin to these Samples caused the percentage of dead cells to more than triple to an average of 68%. Sample 3 was the same as Sample 2 except that 0.00001 micromolar of LSEAL was added before the ionomycin was added. The percentage of dead cells averaged of 106% of no LSEAL. Sample 4 was the same as Sample 3 except that 0.0001 micromolar of LSEAL was added. The percentage of cell death was 83% of no LSEAL. Sample 5 was the same as Sample 4 except that 0.001 micromolar LSEAL was added. The percentage of cell death was 63% of no LSEAL. Sample 6 was the same as Sample 5 except that 0.01 micromolar LSEAL was added. The percentage of cell death was 61% of no LSEAL. Sample 7 was the same as Sample 6 except that 0.1 micromolar LSEAL was added. The percentage of cell death was 57% of no LSEAL. Sample 8 was the same as Sample 7 except that 1.0 micromolar LSEAL was added. The percentage of cell death was 48% of no LSEAL. Sample 9 was the same as Sample 8 except that 10.0 micromolar LSEAL was added. The percentage of cell death was 35% of no LSEAL. Sample 10 was the same as Sample 9 except that 100 micromolar LSEAL was added. The percentage of cell death was 33% of no LSEAL. […] The results are summarized in Table 1 below and the results are graphically illustrated in FIG. 1"}, "[2]": {"test_system": "cultured cortical neurons from rat brains", "assay": "UV light-induced cell death of cultured cortical neurons", "format": "cell-based", "conditions": "for Dead Cells / Live Cells: cell count", "description": "as §1\nIn the second experiment, cell death of the cultured cortical neurons was induced by UV light. […] The percentage of cell death was 18%. Sample 14 is the same as Sample 11, except for the addition of 100 μM LSEAL to the culture. The percentage of cell death was reduced from 18% to 14%. Sample 12 was exposed to 30 mJ/cm^2 of UV light. The percentage of cell death was 58%. The inclusion of the LSEAL before exposure reduced the percentage of cell death to 25%. See Sample 15. […] The data for the experiment is set forth below in Tables 3 and 4, and is graphically illustrated in FIG. 2."}, "[3]": {"molecular_target": "T1, calpain I (Homo sapiens, UniProt P07384)", "T1 sequence (P07384 1-714)": "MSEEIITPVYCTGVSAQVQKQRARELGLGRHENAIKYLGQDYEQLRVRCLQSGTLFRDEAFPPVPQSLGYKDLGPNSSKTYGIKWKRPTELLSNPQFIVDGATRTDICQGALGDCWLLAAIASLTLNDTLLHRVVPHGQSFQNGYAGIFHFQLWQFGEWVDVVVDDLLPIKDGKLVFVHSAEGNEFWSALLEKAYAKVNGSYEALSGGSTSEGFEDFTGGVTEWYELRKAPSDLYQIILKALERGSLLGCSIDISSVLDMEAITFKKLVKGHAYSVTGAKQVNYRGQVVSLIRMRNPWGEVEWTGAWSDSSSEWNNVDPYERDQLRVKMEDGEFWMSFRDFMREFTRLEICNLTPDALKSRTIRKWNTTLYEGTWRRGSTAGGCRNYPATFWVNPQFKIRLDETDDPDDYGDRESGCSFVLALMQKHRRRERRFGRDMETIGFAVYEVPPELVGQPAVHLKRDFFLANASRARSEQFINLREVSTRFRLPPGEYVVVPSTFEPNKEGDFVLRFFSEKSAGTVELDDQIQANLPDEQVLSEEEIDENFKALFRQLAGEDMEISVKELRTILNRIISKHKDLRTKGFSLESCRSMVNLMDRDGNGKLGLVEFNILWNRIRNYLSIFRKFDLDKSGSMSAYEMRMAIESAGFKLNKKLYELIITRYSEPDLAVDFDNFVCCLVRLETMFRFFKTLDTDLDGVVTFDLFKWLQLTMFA", "T1 sequence (P04632 1-268 partner)": "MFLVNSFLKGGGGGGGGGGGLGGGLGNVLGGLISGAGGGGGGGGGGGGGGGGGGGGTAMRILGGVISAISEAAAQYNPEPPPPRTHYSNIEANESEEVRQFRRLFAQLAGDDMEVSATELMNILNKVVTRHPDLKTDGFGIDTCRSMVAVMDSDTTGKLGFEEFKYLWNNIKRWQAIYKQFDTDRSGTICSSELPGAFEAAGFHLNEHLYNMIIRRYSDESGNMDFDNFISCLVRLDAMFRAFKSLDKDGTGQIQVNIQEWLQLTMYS", "assay": "Tau protein degradation by calpain I", "format": "biochemical", "conditions": "100 μM LSEAL; FIG. 3", "protocol": "Another experiment was conducted to show the effect of the proteins of the present invention on the tau protein. The tau protein is a microtubule-associated protein (MAP). Tau is a well-described calpain I substrate."}, "[4]": {"conditions": "0 mJ/cm^2 UV light, LSEAL (Sample 14)"}, "[5]": {"conditions": "30 mJ/cm^2 UV light, LSEAL (Sample 15)"}, "[6]": {"conditions": "60 mJ/cm^2 UV light, LSEAL (Sample 16)"}},
  "data": [
    {"substance": "Leu-Ser-Glu-Ala-Leu (LSEAL; listed as Homo sapiens)", "values": [
      {"measurement": "Percentage Average cell death (ratioed to 0 LSEAL)", "setting": "[1]; 0.00001 micromolar LSEAL added before 0.4 μM ionomycin (Sample 3)", "value": 106, "unit": "%"},
      {"measurement": "Percentage Average cell death (ratioed to 0 LSEAL)", "setting": "[1]; 0.0001 micromolar LSEAL, 0.4 μM ionomycin (Sample 4)", "value": 83, "unit": "%"},
      {"measurement": "Percentage Average cell death (ratioed to 0 LSEAL)", "setting": "[1]; 0.001 micromolar LSEAL, 0.4 μM ionomycin (Sample 5)", "value": 63, "unit": "%"},
      {"measurement": "Percentage Average cell death (ratioed to 0 LSEAL)", "setting": "[1]; 0.01 micromolar LSEAL, 0.4 μM ionomycin (Sample 6)", "value": 61, "unit": "%"},
      {"measurement": "Percentage Average cell death (ratioed to 0 LSEAL)", "setting": "[1]; 0.1 micromolar LSEAL, 0.4 μM ionomycin (Sample 7)", "value": 57, "unit": "%"},
      {"measurement": "Percentage Average cell death (ratioed to 0 LSEAL)", "setting": "[1]; 1.0 micromolar LSEAL, 0.4 μM ionomycin (Sample 8)", "value": 48, "unit": "%"},
      {"measurement": "Percentage Average cell death (ratioed to 0 LSEAL)", "setting": "[1]; 10.0 micromolar LSEAL, 0.4 μM ionomycin (Sample 9)", "value": 35, "unit": "%"},
      {"measurement": "Percentage Average cell death (ratioed to 0 LSEAL)", "setting": "[1]; 100 micromolar LSEAL, 0.4 μM ionomycin (Sample 10)", "value": 33, "unit": "%"},
      {"measurement": "% Dead Cells", "setting": "[2]; 0 mJ/cm^2 UV light, 100 μM LSEAL (Sample 14), control without LSEAL 18%", "value": 14, "unit": "%"},
      {"measurement": "Dead Cells", "setting": "[2]; [4]", "value": 5},
      {"measurement": "Live Cells", "setting": "[2]; [4]", "value": 30},
      {"measurement": "Dead Cells", "setting": "[2]; [5]", "value": 26},
      {"measurement": "Live Cells", "setting": "[2]; [5]", "value": 78},
      {"measurement": "% Dead Cells", "setting": "[2]; 30 mJ/cm^2 UV light, LSEAL included before exposure (Sample 15), control without LSEAL 58%", "value": 25, "unit": "%"},
      {"measurement": "Dead Cells", "setting": "[2]; [6]", "value": 25},
      {"measurement": "Live Cells", "setting": "[2]; [6]", "value": 56},
      {"measurement": "% Dead Cells", "setting": "[2]; 60 mJ/cm^2 UV light, culture containing LSEAL (Sample 16), control without LSEAL 74%", "value": 30, "unit": "%"},
      {"measurement": "Effect on tau degradation by calpain I", "setting": "[3]", "value": "inhibits degradation"}
    ]}
  ]
}
